Test results reported in the supplement of paper PMC10307832.

What was measured:
Test in all cases: relative viability (nuclei count vs DMSO), 5 days (fraction); higher = more cells survive
[1] = compound: C1=CC2=NC=CN=C2C=C1/C=C/3\C(=O)NC(=O)S3 + CC(=O)c1c(C)c2cnc(Nc3ccc(N4CCNCC4)cn3)nc2n(C2CCCC2)c1=O [Palbociclib] (partner 0.5 µM)
Procedure, shortened: (§1)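 Five library-drug doses in √10 steps were combined with a fixed anchor-drug dose, or a single drug was given alone, by pin tool to lung cancer cell lines in 1536-well plates the day after seeding. Nuclei were stained and counted after 5 days. Relative viability is the nuclei count in treated wells over that in vehicle wells, taken as the median of duplicate plates.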

[2] = compound: C1=CC2=NC=CN=C2C=C1/C=C/3\C(=O)NC(=O)S3 + C[C@@H](Oc1cc(-c2cnn(C3CCNCC3)c2)cnc1N)c1c(Cl)ccc(F)c1Cl [Crizotinib] (partner 1 µM)
Procedure, shortened: as §1

[3] = compound: CCN1CCN(c2ccc(Nc3cc(N(C)C(=O)Nc4c(Cl)c(OC)cc(OC)c4Cl)ncn3)cc2)CC1 [BGJ398] + CC(C)C[C@H](NC(=O)[C@H](Cc1ccccc1)NC(=O)c1cnccn1)B(O)O [Bortezomib] (partner 0.002 µM)
Procedure, shortened: as §1

[4] = compound: CCN1CCN(c2ccc(Nc3cc(N(C)C(=O)Nc4c(Cl)c(OC)cc(OC)c4Cl)ncn3)cc2)CC1 [BGJ398] + O=C(CCCCCCC(=O)Nc1ccccc1)NO [Vorinostat] (partner 1 µM)
Procedure, shortened: as §1

Cell Line	relative viability ([1]; first compound 0.02 µM)	relative viability ([1]; first compound 0.06325 µM)	relative viability ([1]; first compound 0.2 µM)	relative viability ([1]; first compound 0.6325 µM)	relative viability ([1]; first compound 2 µM)	relative viability ([2]; first compound 0.02 µM)	relative viability ([2]; first compound 0.06325 µM)	relative viability ([2]; first compound 0.2 µM)	relative viability ([2]; first compound 0.6325 µM)	relative viability ([2]; first compound 2 µM)	relative viability ([3]; first compound 0.01 µM)	relative viability ([3]; first compound 0.03162 µM)	relative viability ([3]; first compound 0.1 µM)	relative viability ([3]; first compound 0.3162 µM)	relative viability ([3]; first compound 1 µM)	relative viability ([4]; first compound 0.01 µM)	relative viability ([4]; first compound 0.03162 µM)	relative viability ([4]; first compound 0.1 µM)	relative viability ([4]; first compound 0.3162 µM)	relative viability ([4]; first compound 1 µM)
LCLC-103H	0.482	0.457	0.475	0.431	0.485	1.08	0.943	1.06	1.03	0.925	1.15	1.02	1.07	0.963	0.875	0.769	0.784	0.68	0.697	0.602
LOU-NH91	0.501	0.538	0.556	0.552	0.548	0.717	0.761	0.745	0.755	0.72	0.483	0.498	0.547	0.54	0.472	0.896	0.896	0.957	0.748	0.883
LU99A	0.444	0.389	0.439	0.398	0.276	0.613	0.597	0.564	0.415	0.431	1.08	1.23	1.23	1.13	1.09	0.472	0.437	0.542	0.451	0.486
LXF-289	0.529	0.632	0.574	0.552	0.637	0.766	0.735	0.785	0.777	0.858	0.951	0.918	0.918	0.888	0.896	0.746	0.666	0.769	0.608	0.73
NCI-H23	0.513	0.547	0.577	0.509	0.349	0.49	0.629	0.498	0.555	0.351	0.946	1.05	1.19	1.2	1	0.611	0.668	0.722	0.53	0.557
NCI-H322M	0.553	0.491	0.477	0.454	0.455	0.858	0.778	1.1	0.823	0.943	1.14	0.989	1.21	1.21	1.24	1.04	0.853	0.942	0.892	0.876
NCI-H441	0.195	0.271	0.24	0.193	0.112	0.577	0.716	0.698	0.827	0.644	0.398	0.991	0.861	0.4	0.472	–	0.73	0.822	0.916	0.81
NCI-H460	0.168	0.107	0.176	0.2	0.122	0.783	1.22	0.959	0.831	0.853	1.17	1.23	1.45	1.04	1.06	0.737	0.706	1.18	0.809	0.67
NCI-H520	0.211	0.246	0.251	0.181	0.201	0.721	1.01	0.713	0.785	0.756	0.538	0.54	0.259	0.201	0.162	0.637	0.563	0.503	0.269	0.332
NCI-H647	0.314	0.488	0.41	0.363	0.342	0.989	1.77	1.19	1.03	1	0.986	1.12	1.24	0.864	0.793	0.471	0.549	0.482	0.51	0.626
NCI-H650	0.346	0.336	0.36	0.344	0.275	0.805	0.707	0.627	0.714	0.652	0.777	0.909	0.845	0.837	0.627	0.414	0.427	0.543	0.464	0.411
NCI-H661	0.397	0.453	0.402	0.434	0.436	0.87	0.809	0.945	1	0.987	0.7	0.905	0.799	0.767	1	0.774	0.796	0.806	0.731	0.801
NCI-H727	0.549	0.683	0.637	0.649	0.556	0.768	0.842	0.75	0.794	0.517	0.899	0.822	0.796	0.882	0.774	1.06	1.26	1.21	1.22	0.858
NCI-H838	0.217	0.25	0.233	0.179	0.17	0.778	1.12	0.737	0.751	0.823	0.636	0.921	0.655	0.776	0.5	0.664	0.697	0.695	0.633	0.629
NCI-H1355	0.359	0.419	0.401	0.359	0.358	0.865	1.03	1.1	1.02	0.976	1.05	1.27	1.2	1.15	0.603	0.576	0.626	0.695	0.607	0.49
NCI-H1437	0.306	0.297	0.328	0.305	0.277	0.829	0.901	0.805	0.917	1.02	0.521	0.56	0.412	0.536	0.462	0.954	0.887	0.794	0.784	0.821
